These results are taken from article PMC10520499, “Next step in the development of mesoprogestins: the preclinical profile of EC313” (Frontiers in Endocrinology, 2023).

Assay [1] concerns immature female ovariectomized Wistar rats. As to the kind of experiment: Uterus growth test in immature ovariectomized rats. The assay is classed as in vivo, rat. The settings on record: daily s.c. doses of up to corresponding to 172 mg/kg body weight. The source says:
[…] The vehicle served as the negative control. After treatment, the animals were sacrificed on day 4, and their vagina and uterine horns were dissected and weighed.

Assay [2] addresses T1, human estrogen receptor β (Homo sapiens, UniProt Q92731).
T1 construct: coding for the full length human estrogen receptors α and β, respectively, were obtained from GenScript; made in house; host or cells: HI (Hi5) insect cells, baculovirus; cellular lysate
As to the kind of experiment: Competitive binding, human estrogen receptor β. The conditions noted are these: ERβ, full length. As to the method:
(§1) The study aimed to characterize the competitive binding profile of EC313 to relevant human nuclear receptors. For the assays, commercially available ‘ligand binding domain’ proteins were purchased (Thermo Fisher Scientific). In addition, the full-length receptor proteins were expressed in transfected HI insect cells using the `Bac-to-bac Baculovirus expression system´ (Thermo Fisher Scientific). Cellular lysates served as receptor preparation. Receptor protein preparations were incubated with tritiated reference ligands and EC313 or reference steroids at concentrations between 0.1 and 1000 nM for 2h at 4°C to reach equilibrium. Subsequently, unbound steroids were adsorbed to dextran-coated charcoal (Sigma Aldrich), separated by filtration, and the remaining radioactivity was quantified in a ß-counter (Perkin Elmer). Displacement curves were fitted using the GraphPad Prism 7 free version to obtain EC50 values. Relative binding affinity (RBA [%], (C50ref/C50test)*100) and the competition coefficient (C50test/C50ref) were used to describe the relative binding potency of EC313 compared to the reference ligands.
There are two subtypes of estrogen receptors (ER), ERα and ERβ, coded in different genes. Plasmids pFastBac1-ERa and pFastBac1-ERb, coding for the full length human estrogen receptors α and β, respectively, were obtained from GenScript. […]

Assay [3] has as its target T2, human mineralocorticoid receptor (hMR) (Homo sapiens, UniProt P08235).
T2 construct: host or cells: U2OS, transient co-transfection
T2 sequence (P08235 1-984): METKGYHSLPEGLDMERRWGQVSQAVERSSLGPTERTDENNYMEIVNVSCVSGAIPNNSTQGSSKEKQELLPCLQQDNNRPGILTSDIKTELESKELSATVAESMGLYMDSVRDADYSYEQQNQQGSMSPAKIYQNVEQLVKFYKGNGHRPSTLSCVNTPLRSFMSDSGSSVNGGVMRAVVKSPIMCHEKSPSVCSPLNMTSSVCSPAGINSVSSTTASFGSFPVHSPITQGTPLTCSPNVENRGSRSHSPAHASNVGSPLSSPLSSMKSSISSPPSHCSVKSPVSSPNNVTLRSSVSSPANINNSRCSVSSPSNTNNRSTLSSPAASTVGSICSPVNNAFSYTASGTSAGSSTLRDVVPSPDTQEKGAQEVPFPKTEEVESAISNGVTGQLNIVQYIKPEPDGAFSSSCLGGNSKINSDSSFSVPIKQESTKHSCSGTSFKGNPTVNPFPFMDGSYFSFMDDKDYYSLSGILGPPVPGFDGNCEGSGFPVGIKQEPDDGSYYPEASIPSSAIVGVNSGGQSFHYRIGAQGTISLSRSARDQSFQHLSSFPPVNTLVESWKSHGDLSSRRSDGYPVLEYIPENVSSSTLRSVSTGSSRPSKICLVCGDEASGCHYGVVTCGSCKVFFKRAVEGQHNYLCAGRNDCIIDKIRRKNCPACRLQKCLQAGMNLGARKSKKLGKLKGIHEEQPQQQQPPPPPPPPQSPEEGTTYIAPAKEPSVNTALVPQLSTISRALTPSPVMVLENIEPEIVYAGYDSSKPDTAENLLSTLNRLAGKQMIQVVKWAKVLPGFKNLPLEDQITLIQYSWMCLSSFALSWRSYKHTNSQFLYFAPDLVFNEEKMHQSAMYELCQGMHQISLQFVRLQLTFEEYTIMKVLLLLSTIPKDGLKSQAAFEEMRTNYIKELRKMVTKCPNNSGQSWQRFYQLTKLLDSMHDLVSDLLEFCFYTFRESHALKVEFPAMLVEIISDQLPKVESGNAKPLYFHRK
The assay can be described thus: MR transactivation (U2OS, MMTV-LUC). The format is cell-based. The source says:
The U2OS cell line which expresses the mineralocorticoid receptor was used to study the gene expression on the transcriptional level under the influence of EC313 and the reference compound. The cells were transfected with a vector encoding a human full-length mineralocorticoid receptor (hMR) linked to the reporter vector MMTV/LUC. Cells were transiently and stably transfected in order to reach high protein expression. Next, co-transfected U2OS cells carrying mineralocorticoid receptors and reporter vector MMTV/LUC were stimulated by the tested compounds (Aldosterone or EC313) or the mixture: aldosterone and an appropriate range of concentrations of EC313. The agonist and antagonist properties of EC313 toward tested receptor MR were analyzed using luminescence detection.
In order to develop the transfection assay, plasmid-included vectors coding sequences for the receptor as well as the reporter gene were generated and isolated, respectively. Vector pcDNA3.1 coding sequence for full length of human MR (MR cDNA ORF clone in pcDNA3.1+/C-(K)-DYK) was used as an expression vector for MR and was linked to the reporter system (pGL4.36-MMTV/LUC) building with vector pGL4.36 coding the mineralocorticoid responsive element (MMTV) and firefly luciferase [luc2P/Hygro].
Transfection was performed on a 96-well plate (15.5x10^3 cells per well) in culture medium (RPMI phenol red, 10% FBS, L-Glu) w/o antibiotics according to the manufacturer’s specification. Prior to transfection, plated cells were approximately 70%–80% confluent. 24h later, cells were treated with test compounds overnight.
The properties of EC313 to induce/inhibit tested receptor was studied in agonistic and antagonistic approaches. Co-transfected U2OS cells were stimulated with either aldosterone (0.009 nM - 1200 nM) or EC313 (0.009 nM - 1200 nM) in order to determine and compare the agonist potential of test compounds. The antagonistic activity was checked in competitive interaction between EC313 (0.009 nM - 1200 nM) and 0.4 nM of Aldosterone.

Assay [4] has as its target T3, hGR-LBD purified recombinant protein (Homo sapiens, UniProt P04150).
T3 construct: purchased Thermo Fisher Scientific
T3 sequence (P04150 524-758 limits assumed): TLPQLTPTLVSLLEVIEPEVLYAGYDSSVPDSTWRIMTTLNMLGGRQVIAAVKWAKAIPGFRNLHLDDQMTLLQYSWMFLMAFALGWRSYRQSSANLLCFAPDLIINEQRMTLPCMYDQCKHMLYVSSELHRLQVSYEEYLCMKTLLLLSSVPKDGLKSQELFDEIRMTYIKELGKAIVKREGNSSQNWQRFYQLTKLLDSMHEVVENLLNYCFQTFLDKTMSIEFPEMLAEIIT
As to the kind of experiment: Competitive binding, GR ligand binding domain. As to the method:
as §1

The mark [5] stands for this setting: GR-LBD, EC313 relative to Dexamethasone.

Where “and” joins values, the source holds several entries; their conditions need not be identical. Equal entries are not always repeated.

T1 sequence (Q92731 whole entry): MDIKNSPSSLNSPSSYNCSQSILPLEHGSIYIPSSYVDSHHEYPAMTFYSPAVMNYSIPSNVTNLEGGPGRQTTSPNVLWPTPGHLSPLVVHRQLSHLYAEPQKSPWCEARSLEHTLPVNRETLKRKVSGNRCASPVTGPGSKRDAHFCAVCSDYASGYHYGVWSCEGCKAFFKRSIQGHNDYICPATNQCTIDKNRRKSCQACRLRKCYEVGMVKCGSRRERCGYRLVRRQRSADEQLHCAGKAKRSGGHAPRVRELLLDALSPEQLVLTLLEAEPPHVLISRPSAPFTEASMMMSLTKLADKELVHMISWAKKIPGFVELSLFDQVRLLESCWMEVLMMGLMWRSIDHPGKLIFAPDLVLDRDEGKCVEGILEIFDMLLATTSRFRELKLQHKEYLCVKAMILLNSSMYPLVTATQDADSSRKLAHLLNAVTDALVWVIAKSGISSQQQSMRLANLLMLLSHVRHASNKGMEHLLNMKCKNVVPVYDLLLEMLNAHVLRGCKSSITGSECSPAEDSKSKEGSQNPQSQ

The IC50 is the point on the concentration scale where inhibition reaches its midpoint. For the compound `C[C@]12C[C@H](c3ccc(-c4ccoc4)cc3)C3=C4CCC(=O)C=C4CC[C@H]3[C@@H]1CC[C@]21OCCC1=C(F)F` [EC313], the “estrogenic / anti-estrogenic activity (uterine horn and vagina weights)” value in assay [1] was “neither estrogenic nor anti-estrogenic activity”. The “competitive displacement of [3H]-estradiol” value in assay [2] is on record as “did not cause any competitive displacement”. Further, the “transactivation of hMR (agonism)” value in assay [3] is on record as “does not transactivate hMR”. Moreover, the “fold lower potency than Spironolactone” value in assay [3] (MR antagonism) is reported as “approximately 80 fold”. Moreover, in assay [3] (MR, 0.4 nM Aldosterone, read-out: IC50, antagonism of Aldosterone-induced transactivation), the IC50 is 2000 nM and ~2000 nM. For the same compound, in assay [4] (setting [5]), the “Comp. Coefficient” value is 2 and 1.7; the RBA is recorded as 60%. Besides, in assay [4] (hGR-LBD purified recombinant protein), the IC50 was found to be 19.1 ± 0.9 nM.
